ChEMBL document CHEMBL3286148, “Aminoazabenzimidazoles, a novel class of orally active antimalarial agents” (J Med Chem, 2014)
Active and inactive are the calls of the source. No cut-off for these calls is given here.

Experiments:
Plasmodium falciparum [1] = experiment: Antiplasmodial activity against Plasmodium falciparum Dd2; type: functional, organism-based
Plasmodium falciparum [2] = experiment: Antiplasmodial activity against Plasmodium falciparum Dd2 harboring DHODH mutant; type: functional, organism-based
Plasmodium falciparum [3] = experiment: Antiplasmodial activity against Plasmodium falciparum Dd2 harboring HSP90 mutant; type: functional, organism-based
Plasmodium falciparum [4] = experiment: Antiplasmodial activity against Plasmodium falciparum Dd2 harboring CRT mutant; type: functional, organism-based
Plasmodium falciparum [5] = experiment: Antiplasmodial activity against Plasmodium falciparum Dd2 harboring CYTb-Qi mutant; type: functional, organism-based
Plasmodium falciparum [6] = experiment: Antiplasmodial activity against chloroquine and pyrimethamine-sensitive Plasmodium falciparum 3D7A assessed as parasite reduction ratio at 10 times IC50 after 48 hrs; type: functional, organism-based
[7] = Selectivity index, ratio of IC50 for human A549 cells to IC50 for Plasmodium falciparum; type: toxicity, cell-based; conditions: read-out: Ratio IC50
[8] = target: Voltage-gated inwardly rectifying potassium channel KCNH2 (Homo sapiens, UniProt Q12809); experiment: Inhibition of human ERG
Voltage-gated inwardly rectifying potassium channel KCNH2, sequence (Q12809 whole entry): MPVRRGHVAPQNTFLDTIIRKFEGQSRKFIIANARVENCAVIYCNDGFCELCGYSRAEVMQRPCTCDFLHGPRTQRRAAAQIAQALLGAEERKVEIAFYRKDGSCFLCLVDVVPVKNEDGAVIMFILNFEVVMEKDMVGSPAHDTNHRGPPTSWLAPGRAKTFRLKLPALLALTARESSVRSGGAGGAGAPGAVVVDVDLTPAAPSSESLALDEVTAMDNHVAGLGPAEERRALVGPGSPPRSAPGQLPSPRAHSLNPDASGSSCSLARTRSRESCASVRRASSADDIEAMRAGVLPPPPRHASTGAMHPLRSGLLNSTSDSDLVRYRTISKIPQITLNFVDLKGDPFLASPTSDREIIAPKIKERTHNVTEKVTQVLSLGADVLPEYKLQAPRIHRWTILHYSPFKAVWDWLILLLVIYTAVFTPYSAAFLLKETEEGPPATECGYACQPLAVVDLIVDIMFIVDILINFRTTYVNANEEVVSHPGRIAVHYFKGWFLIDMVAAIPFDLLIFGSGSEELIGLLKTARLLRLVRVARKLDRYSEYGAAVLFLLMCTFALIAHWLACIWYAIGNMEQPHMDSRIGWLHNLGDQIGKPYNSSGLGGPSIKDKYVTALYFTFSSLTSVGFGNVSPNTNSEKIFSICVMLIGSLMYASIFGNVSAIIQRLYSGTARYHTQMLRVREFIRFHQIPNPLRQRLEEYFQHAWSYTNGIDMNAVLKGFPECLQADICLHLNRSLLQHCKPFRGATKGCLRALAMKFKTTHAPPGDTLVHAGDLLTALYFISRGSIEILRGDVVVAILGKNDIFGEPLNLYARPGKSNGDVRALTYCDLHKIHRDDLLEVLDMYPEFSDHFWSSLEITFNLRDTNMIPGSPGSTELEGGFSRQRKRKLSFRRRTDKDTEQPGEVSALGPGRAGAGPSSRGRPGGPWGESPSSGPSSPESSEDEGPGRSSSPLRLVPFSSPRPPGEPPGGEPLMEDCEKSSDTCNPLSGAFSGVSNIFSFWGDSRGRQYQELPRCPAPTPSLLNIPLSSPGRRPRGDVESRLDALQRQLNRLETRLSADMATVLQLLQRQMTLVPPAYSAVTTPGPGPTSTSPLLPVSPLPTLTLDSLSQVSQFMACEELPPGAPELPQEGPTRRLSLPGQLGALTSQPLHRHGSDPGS

[9] = Clearance in rat hepatocytes assessed per 1E6 cells; type: ADME, cell-based, Hepatocyte; conditions: read-out: CLH
[10] = Clearance in human liver microsomes; type: ADME; conditions: read-out: CLH
[11] = Clearance in mouse liver microsomes; type: ADME; conditions: read-out: CLH
Plasmodium falciparum [12] = experiment: microbe, parasite or virus in culture; conditions: 7G8, 72 h
Description: Antiplasmodial activity against Plasmodium falciparum 7G8 after 72 hrs by SYBR I method

Plasmodium falciparum [13] = experiment: microbe, parasite or virus in culture; conditions: W2, 72 h
Description: Antiplasmodial activity against Plasmodium falciparum W2 after 72 hrs by SYBR I method

Plasmodium falciparum [14] = experiment: microbe, parasite or virus in culture; conditions: SB1, 72 h
Description: Antiplasmodial activity against Plasmodium falciparum SB1 after 72 hrs by SYBR I method

Plasmodium falciparum [15] = experiment: microbe, parasite or virus in culture; conditions: Dd2, 72 h
Description: Antiplasmodial activity against Plasmodium falciparum Dd2 after 72 hrs by SYBR I method

Plasmodium falciparum [16] = experiment: microbe, parasite or virus in culture; conditions: NF54, 72 h
Plasmodium falciparum [17] = experiment: microbe, parasite or virus in culture; conditions: K1, 72 h

SMILES: Nc1nc2ccc(OCC(F)(F)F)nc2n1CC(O)c1ccc(C(F)(F)F)cc1Cl (racemic)
- IC50 (Plasmodium falciparum [1]): 24.6 nM
- IC50 (Plasmodium falciparum [2]): 19.7 nM
- IC50 (Plasmodium falciparum [3]): 34.1 nM
- IC50 (Plasmodium falciparum [4]): 16.4 nM
- IC50 (Plasmodium falciparum [5]): 11.8 nM
- Activity (Plasmodium falciparum [6]): Active
- selectivity ratio [7]: 232
- IC50 [8]: > 33300 nM
- hepatocyte CLint [9]: 36 µL/min/1e6 cells
- microsomal CLint [10]: 45 µL/min/mg
- microsomal CLint [11]: 21 µL/min/mg
- IC50 (Plasmodium falciparum [12]): 12 nM
- IC50 (Plasmodium falciparum [13]): 62 nM
- IC50 (Plasmodium falciparum [14]): 178 nM
- IC50 (Plasmodium falciparum [15]): 135 nM
- IC50 (Plasmodium falciparum [16]): 43 nM
- IC50 (Plasmodium falciparum [17]): 10 nM
